Assay results reported in PMC8119466, “A screen of FDA-approved drugs identifies inhibitors of protein tyrosine phosphatase 4A3 (PTP4A3 or PRL-3)” (Scientific Reports, 2021).
Counter-ions that a name gives are not always drawn. Like-named read-outs stand apart in the source and are kept apart here.

Tests used:
Format in all cases: biochemical
[1] = target: T1, recombinant PRL-3 (Homo sapiens, UniProt O75365); assay: In vitro phosphatase assay (DiFMUP hydrolysis), PRL-3; further: test concentration or dose not given here
T1 construct: 6xHis (N, cleaved yes); made in house; host or cells: E. coli One Shot BL21 Star
T1 sequence (O75365 whole entry): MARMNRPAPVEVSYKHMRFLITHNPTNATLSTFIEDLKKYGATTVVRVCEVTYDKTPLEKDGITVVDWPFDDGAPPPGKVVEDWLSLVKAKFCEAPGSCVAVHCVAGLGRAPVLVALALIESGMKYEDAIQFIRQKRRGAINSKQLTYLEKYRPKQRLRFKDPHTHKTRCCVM

[2] = target: T2, recombinant PRL-2 (Homo sapiens, UniProt Q12974); assay: In vitro phosphatase assay (DiFMUP hydrolysis), PRL-2;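 further: PRL-2 activity read as DiFMUP hydrolysis after 20 min at room temperature with drug, enzyme first pre-reduced at 4 °C for 20 min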
T2 construct: 6xHis (N, cleaved yes); made in house; host or cells: E. coli One Shot BL21 Star
T2 sequence (Q12974 1-167): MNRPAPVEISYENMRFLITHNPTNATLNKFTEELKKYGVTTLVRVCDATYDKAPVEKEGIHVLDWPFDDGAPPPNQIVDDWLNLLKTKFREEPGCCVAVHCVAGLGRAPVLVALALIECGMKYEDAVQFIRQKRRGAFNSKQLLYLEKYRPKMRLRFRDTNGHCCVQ

[3] = target: T3, recombinant PRL-1 (Homo sapiens, UniProt Q93096); assay: In vitro phosphatase assay (DiFMUP hydrolysis), PRL-1; further: test concentration or dose not given here
T3 construct: 6xHis (N, cleaved yes); made in house; host or cells: E. coli One Shot BL21 Star
T3 sequence (Q93096 1-173): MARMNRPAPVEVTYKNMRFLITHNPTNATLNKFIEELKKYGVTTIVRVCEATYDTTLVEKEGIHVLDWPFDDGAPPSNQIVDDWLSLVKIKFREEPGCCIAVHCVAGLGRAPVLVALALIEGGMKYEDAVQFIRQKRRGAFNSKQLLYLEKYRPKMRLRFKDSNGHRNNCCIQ

[4] = FDA-approved drug screen, compared to DMSO

| Structure (SMILES) | % Phosphatase Activity (compared to DMSO) PRL-3 [1, 4] [%] | % Phosphatase Activity (compared to DMSO) PRL-2 [2, 4] [%] | % Phosphatase Activity (compared to DMSO) PRL-1 [3, 4] [%] | % Phosphatase Activity (compared to DMSO) PRL-3 [1] [%] | % Phosphatase Activity (compared to DMSO) PRL-2 [2] [%] | % Phosphatase Activity (compared to DMSO) PRL-1 [3] [%] |
| --- | --- | --- | --- | --- | --- | --- |
| Cc1cn(-c2cc(NC(=O)c3ccc(C)c(Nc4nccc(-c5cccnc5)n4)c3)cc(C(F)(F)F)c2)cn1 [Nilotinib (AMN-107)] | 76 | 92 | 83 | – | – | – |
| COC(=O)C1=C(C#N)NC(C)=C(C(=O)OC(C)C)C1c1cccc([N+](=O)[O-])c1 (stereo not drawn) [Nilvadipine] | 87 | 82 | 88 | – | – | – |
| CS(=O)(=O)Nc1ccc([N+](=O)[O-])cc1Oc1ccccc1 [Nimesulide] | – | – | – | 85 | 83 | 78 |
| COCCOC(=O)C1=C(C)NC(C)=C(C(=O)OC(C)C)C1c1cccc([N+](=O)[O-])c1 (stereo not drawn) [Nimodipine] | 88 | 72 | 76 | – | – | – |
| COC(=O)c1ccc2c(c1)NC(=O)/C2=C(\Nc1ccc(N(C)C(=O)CN2CCN(C)CC2)cc1)c1ccccc1 [Nintedanib (BIBF 1120)] | 73 | 106 | 92 | – | – | – |
| COC(=O)C1=C(C)NC(C)=C(C(=O)OCC(C)C)C1c1ccccc1[N+](=O)[O-] (stereo not drawn) [Nisoldipine] | 85 | 75 | 81 | – | – | – |
| CC(=O)Oc1ccccc1C(=O)Nc1ncc([N+](=O)[O-])s1 [Nitazoxanide] | 62 | 76 | 87 | – | – | – |
| CCOC(=O)C1=C(C)NC(C)=C(C(=O)OC)C1c1cccc([N+](=O)[O-])c1 (stereo not drawn) [Nitrendipine] | 68 | 84 | 85 | – | – | – |
| NC(=O)N/N=C/c1ccc([N+](=O)[O-])o1 [Nitrofural] | 68 | 72 | 82 | – | – | – |
| O=C1CN(/N=C/c2ccc([N+](=O)[O-])o2)C(=O)N1 [Nitrofurantoin] | – | – | – | 67 | 63 | 76 |
| O=[N+]([O-])c1ccc(O)c2ncccc12 [Nitroxoline] | 49 | 48 | 58 | – | – | – |
| CNC(=C[N+](=O)[O-])NCCSCc1csc(CN(C)C)n1 [Nizatidine] | 97 | 105 | 87 | – | – | – |
| NC[C@H](O)c1ccc(O)c(O)c1.O.O=C(O)C(O)C(O)C(=O)O [Noradrenaline bitartrate monohydrate] | 88 | 120 | 103 | – | – | – |
| C#C[C@]1(O)CC[C@H]2[C@@H]3CCC4=CC(=O)CC[C@@H]4[C@H]3CC[C@@]21C [Norethindrone] | 79 | 104 | 92 | – | – | – |
| CCn1cc(C(=O)O)c(=O)c2cc(F)c(N3CCNCC3)cc21 [Norfloxacin] | 111 | 130 | 131 | – | – | – |
| COc1ccc2c(c1OC)C(=O)O[C@@H]2[C@H]1c2c(cc3c(c2OC)OCO3)CCN1C [Noscapine HCl] | 103 | 116 | 92 | – | – | – |
| CO[C@@H]1[C@@H](OC(N)=O)[C@@H](O)[C@H](Oc2ccc3c(O)c(NC(=O)c4ccc(O)c(CC=C(C)C)c4)c(=O)oc3c2C)OC1(C)C [Novobiocin Sodium] | 70 | 87 | 94 | – | – | – |
| C[C@@H]1[C@H](O)[C@@H](C)/C=C/C=C/CC/C=C/C=C/C=C/C=C/[C@H](O[C@H]2O[C@@H](C)[C@H](O)[C@@H](N)[C@H]2O)C[C@@H]2O[C@](O)(C[C@@H](O)[C@H](O)CC[C@@H](O)C[C@@H](O)C[C@@H](O)CC(=O)O[C@H]1C)C[C@H](O)[C@H]2C(=O)O [Nystatin (Fungicidin)] | 81 | 87 | 79 | – | – | – |
| C[C@]1(O)C[C@@H](c2nc(-c3ccc4ccc(-c5ccccc5)nc4c3)c3c(N)nccn32)C1 [OSI-906 (Linsitinib)] | 77 | 96 | 79 | – | – | – |
